# Patent US20120029037A1, “ANIMAL ECTOPARASITE-CONTROLLING AGENT” (SUMITOMO CHEMICAL COMPANY, LIMITED, priority 2010, published 2012)
# Columns and labels:
# Assay type in all cases: in vivo
# [1] = system: Ticks (Haemaphysalis longicornis); experiment: Pesticidal activity on ticks in filter paper test; conditions: 48 h, 100 mg/m^2, non-blood-fed young ticks, 2 days later
# Protocol: Pesticidal Activity on Ticks (Haemaphysalis longicornis) in Filter Paper Test
# Each (5 mg) of the present hydrazide compounds (5), (8), (11) and (12) was dissolved in acetone (10 mL), and this acetone solution (1 mL) was uniformly applied onto one side of a filter paper (TOYO No. 2; 5×10 cm; the surface area of the filter paper was 50 cm^2, and thus the amount of the present hydrazide compound applied was 100 mg/m^2). After drying, said filter paper was folded, and the both sides of the paper were clipped to form a bag. Into this bag, test ticks (Haemaphysalis longicornis, non-blood-fed young ticks, 10 ticks/group) were added, and the opening was clipped to seal the bag. Two (2) days later, the number of dead ticks was examined and the mortality was calculated by the following formula:
# Mortality (%)=100×(number of dead ticks/number of ticks tested)
# [2] = system: Mouse-infested ticks (Haemaphysalis longicornis); experiment: Dropping application against mouse-infested ticks; conditions: 0.1% w/v solution 200 μL dropwise to whole body surface, 2 days after application
# Protocol: Propping Application Against Mouse-Infested Ticks (Haemaphysalis longicornis)
# The previous day before dropping application, 30 test ticks (Haemaphysalis longicornis, young ticks) were deposited on a mouse. Before the dropping application, uninfested ticks were removed.
# The present hydrazide compound (5) (5 mg) was dissolved in a mixture (5 mL) of propylene carbonate and diethylene glycol monoethyl ether in equal amounts to prepare a 0.1% w/v solution. Said solution (200 μL) was applied dropwise to the whole body surface of a mouse with a pipette. To a control group, the mixture (200 μL) alone was applied. Each application was repeated 3 times per group.
# Two (2) days after the application, the number of dead ticks was examined and the mortality was calculated by the following formula:
# Mortality (%)=100×(number of dead ticks/infested ticks before dropping application)
# [3] = system: Mouse-infested ticks (Haemaphysalis longicornis); experiment: Oral administration against mouse-infested ticks; conditions: 20 mg in 10 mL test solution at 10 mL per 1 kg body weight, 2 days after administration
# Protocol: Oral Administration Against Mouse-Infested Ticks (Haemaphysalis longicornis)
# The previous day before oral administration, 30 test ticks (Haemaphysalis longicornis, young ticks) were deposited on a mouse. Before the oral administration, uninfested ticks were removed.
# (§1) The present hydrazide compound (5) (20 mg) was dissolved in dimethylformamide (680 mg), and thereto pure water or a corn oil was added to prepare a test solution (10 mL). Said test solution was orally administered to the mouse at the rate of 10 mL per 1 kg of the body weight of the mouse with a gastric sonde. To a control group, a 7% dimethylformamide/corn oil solution alone was orally administered. Each administration was repeated 3 times per group.
# Two (2) days after the administration, the number of dead ticks was examined and the mortality was calculated by the following formula:
# Mortality (%)=100×(number of dead ticks/infested ticks before oral administration)
# [4] = system: Mouse-infested cat fleas (Ctenocephalides felis); experiment: Dropping application against mouse-infested cat fleas; conditions: 0.5% w/v solution 200 μL dropwise along dorsal line, 2 days later
# Protocol: Propping Application Against Mouse-Infested Cat Fleas (Ctenocephalides felis)
# The present hydrazide compound (5) (25 mg) was dissolved in propylene carbonate (5 mL) to prepare a 0.5% w/v solution. Said solution (200 μL) was applied dropwise along the dorsal line of a mouse with a pipette. To a control group, propylene carbonate (200 μL) alone was applied. Each application was repeated 3 times per group.
# After the dropping application, 20 cat fleas were deposited on each mouse. Two (2) days later, the number of dead cat fleas was examined and the mortality was calculated by the following formula:
# (§2) Mortality (%)=100×(number of dead cat fleas/number of cat fleas tested)
# [5] = system: Dog-infested ticks (Haemaphysalis longicornis); experiment: Dropping application against dog-infested ticks; conditions: dropping on skin, 16 days after application, vs placebo group
# Protocol: Propping Application Against Dog-Infested Ticks (Haemaphysalis longicornis)
# (§3) The present hydrazide compound (5) (0.75 or 1.5 g) was dissolved in diethylene glycol monoethyl ether (6.0 g) to prepare a test solution. Said test solution was directly dropped on the skin of the neck and back of the dog while pushing aside fur thereon at a rate of 0.1 ml per 1 kg of the dog's body weight (dose amount: 10 or 20 mg/kg). This is referred to as a test group. On the other hand, diethylene glycol monoethyl ether alone was applied dropwise to a placebo group.
# Fourteen (14) days later, 100 test ticks were deposited on each dog. Two (2) days after the deposit, the number of living ticks, which were infesting the dogs, was examined. When the examination was completed, all infested ticks were removed from the dogs. The infestation rate and control rate were calculated by the following formulae: […]
# Method of calculating infestation rate and control rate at 16 days after the application:
# Infestation rate (%) at X days after application=(number of living ticks at X days/number of ticks deposited)×100
# Control rate (%) at X days after the application=(infestation rate of placebo group at X days−infestation rate of test group at X days)/infestation rate of placebo group at X days×100
# (§4) In addition, if an infestation rate of a test group is higher than a placebo group, then the control rate is deemed to be 0%.
# [6] = system: Mouse-infested cat fleas (Ctenocephalides felis); experiment: Oral administration against mouse-infested cat fleas; conditions: 20 mg in 10 mL test solution at 10 mL per 1 kg body weight, 2 days later
# Protocol: Oral Administration Against Mouse-Infested Cat Fleas (Ctenocephalides felis)
# as §1, with “at a” for “at the”
# After the oral administration, 20 cat fleas were deposited on each mouse. Two (2) days later, the number of cat fleas was examined and the mortality was calculated by the following formula:
# as §2
# [7] = system: Cat-infested cat fleas (Ctenocephalides felis); experiment: Dropping application against cat-infested cat fleas; conditions: dropping on skin; for Flea control rates (%) at 2 days after the application: vs infestation before application; for Flea control rates (%) at 16 days after the application: vs placebo group
# Protocol: Propping Application Against Cat-Infested Cat Fleas (Ctenocephalides felis)
# The previous day before dropping application, 50 test fleas (cat flea adults) were deposited on a cat. Before the dropping application, infested fleas were counted.
# as §3, with “(0.75 g” for “(0.75”, “cat” for “dog”, “thereon on” for “thereon”, “cat's” for “dog's”
# Two (2) days after the application, the number of living fleas, which were infesting the cats, was examined. When the examination was completed, all infested fleas were removed from the cats.
# Fourteen (14) days later, 50 test fleas were re-deposited on each cat. Two (2) days after the re-deposit, the number of living fleas, which were infesting the cats, was examined. When the examination was completed, all infested fleas were removed from the cats. The infestation rate and control rate were calculated by the following formulae: […]
# (i) Method of calculating infestation rate and control rate at the initial stage (2 days) after the application:
# Infestation rate (%) at X days after application=(number of living fleas at X days/number of living fleas before application)×100
# Control rate (%) at X days after application=(infestation rate of test group before application−infestation rate of test group at X days)/infestation rate of test group before application×100
# (ii) Method of calculating infestation rate and control rate at 16 days after the application:
# Infestation rate (%) at X days after application=(number of living fleas at X days/number of fleas deposited)×100
# Control rate (%) at X days after application=(infestation rate of placebo group at X days−infestation rate of test group at X days)/infestation rate of placebo group at X days×100
# as §4
smiles,measurement,setting,value
"CC(C)(C)C(=O)NNc1cc(C2=NOC(c3cc(Cl)cc(Cl)c3)(C(F)(F)F)C2)ccc1Cl (centres unmarked) [(8), N′-{5-[5-(3,5-dichlorophenyl)-5-trifluoromethyl-4,5-dihydroisoxazol-3-yl]-2-chlorophenyl}pivalohydrazide]",mortality at 100 mg/m2,[1],≥ 90%
"CCCCC(=O)NNc1cc(C2=NOC(c3cc(Cl)cc(Cl)c3)(C(F)(F)F)C2)ccc1Cl (centres unmarked) [(11), N′-{5-[5-(3,5-dichlorophenyl)-5-trifluoromethyl-4,5-dihydroisoxazol-3-yl]-2-chlorophenyl}pentanohydrazide]",mortality at 100 mg/m2,[1],≥ 90%
"CCCCCC(=O)NNc1cc(C2=NOC(c3cc(Cl)cc(Cl)c3)(C(F)(F)F)C2)ccc1Cl (centres unmarked) [(12), N′-{5-[5-(3,5-dichlorophenyl)-5-trifluoromethyl-4,5-dihydroisoxazol-3-yl]-2-chlorophenyl}hexanohydrazide]",mortality at 100 mg/m2,[1],≥ 90%
"CC(C)CC(=O)NNc1cc(C2=NOC(c3cc(Cl)cc(Cl)c3)(C(F)(F)F)C2)ccc1Cl (centres unmarked) [Compound (5), N′-{2-chloro-5-[5-(3,5-dichlorophenyl)-5-trifluoromethyl-4,5-dihydroisoxazol-3-yl]phenyl}isovalerohydrazide]",Mortality,[2],≥ 70%
same,Mortality,[3],≥ 90%
same,mortality at 100 mg/m2,[1],≥ 90%
same,Mortality,[4],≥ 70%
same,Tick control rates (%) at 16 days after the application,[5]; dose 10 mg/kg,93%
same,Tick control rates (%) at 16 days after the application,[5]; dose 20 mg/kg,100%
same,Mortality,[6],≥ 90%
same,Flea control rates (%) at 2 days after the application,[7]; dose 10 mg/kg,83%
same,Flea control rates (%) at 16 days after the application,[7]; dose 10 mg/kg,92%
same,Flea control rates (%) at 2 days after the application,[7]; dose 20 mg/kg,92%
same,Flea control rates (%) at 16 days after the application,[7]; dose 20 mg/kg,95%
